# From patent US10294202B2, “Pyrrolidinones as herbicides” (FMC Corporation, priority 2013, dated 2019)
# How the values were obtained:
# [1] = system: transplanted japonica rice (ORYSA); assay: Test G paddy mixture test (Colby); format: in vivo, Oryza sativa; details: applied alone, 14 d; for ORYSA Obsd.: scale 0-100; for ORYSA Obsd. plant response rating (scale 0 to 100): flooded
# Experimental: Seeds of small-flower umbrella […], Cyperus difformis) and […], Heteranthera limosa) were sown on the soil surface in two separate quadrants of 11-cm (4-inch) tubs filled with steam pasteurized Tama soil. Simultaneously, plantings of […], Echinochloa crus-galli) and transplanted japonica rice (ORYSA, Oryza sativa) were established in separate “plug” flats. […] Herbicide application timing was targeted at the 2.0 to 2.5 leaf stage and the plants were treated with test chemicals formulated in a non-phytotoxic solvent. Treated plants and controls were maintained in a greenhouse for 14 d, after which time all species were compared to controls and visually evaluated. Plant response ratings are summarized in Tables G1 through G12, and are based on a scale of 0 to 100 where 0 is no effect and 100 is complete control. A dash (-) response means no test result. Colby's Equation was used to determine the herbicidal effects expected from the mixtures. Colby's Equation (Colby, S. R. “Calculating Synergistic and Antagonistic Responses of Herbicide Combinations,” Weeds, 15(1), pp 20-22 (1967)) calculates the expected additive effect of herbicidal mixtures and for two active ingredients is of the form: Pa+b=Pa+Pb-(PaPb/100) where • Pa+b is the percentage effect of the mixture expected from additive contribution of the individual components: • Pa is the observed percentage effect of the first active ingredient at the same use rate as in the mixture, and • Pb is the observed percentage effect of the second active ingredient at the same use rate as in the mixture. In the following Tables, rates are shown in grams of active ingredient per […]); “Obsd.” is the observed effect. “Exp.” is the expected effect calculated from Colby's Equation.
# waterplantain = assay: Test F flood (paddy) test; format: in vivo, Alisma plantago-aquatica; details: 21 d, scale 0-100
# From the text: (§1) Three plastic pots (ca. 16-cm diameter) per rate were partially filled with sterilized Tama silt loam soil comprising a 35:50:15 ratio of sand, silt and clay and 2.6% organic matter. Separate plantings for each of the three pots were as follows. Seeds from the U.S. of monochoria (Monochoria vaginalis), sedge, umbrella (small-flower umbrella sedge, Cyperus difformis), bulrush, […] bulrush, Scirpus juncoides), and […] (purple […] coccinea), were planted into one 16-cm pot for each rate. Seeds from the U.S. of flatsedge, rice (rice flatsedge, Cyperus iria), sprangletop, Brdd. (bearded sprangletop, Leptochloa fascicularis), one stand of 9 or 10 water seeded rice seedlings (Rice, W.S. Jap, Oryza sativa cv. 'Japonica-[…]' or Rice, W.S. Ind, 'Indica'), and two stands of 3 or 4 seedlings of rice, transplanted (transplanted rice, Oryza sativa cv. 'Japonica-[…]') were planted into one 16-cm pot for each rate. Seeds from the U.S. of barnyardgrass (Echinochloa crus-galli), […] (common […], Alisma plantago-aquatica), and watergrass, late (late watergrass, Echinochloa oryzicola) were planted into one 16-cm pot for each rate. Plantings were sequential so that crop and weed species were at the 2.0 to 2.5-leaf stage at time of treatment. Potted plants were grown in a greenhouse with day/night temperature settings of 30/27° C., and supplemental balanced lighting was provided to maintain a 16-h photoperiod. Test pots were maintained in the greenhouse until test completion. At time of treatment, test pots were flooded to 3 cm above the soil surface, treated by application of test compounds directly to the paddy water, and then maintained at that water depth for the duration of the test. Effects of treatments on rice and weeds were visually evaluated by comparison to untreated controls after 21 d. Plant response ratings, summarized in Table F, are based on a scale of 0 to 100 where 0 is no effect and 100 is complete control. A dash (-) response means no test result.
# Rice, W.S. Jap = assay: Test F flood (paddy) test; format: in vivo, Oryza sativa cv. Japonica—M202; details: 21 d, scale 0-100
# How it was run: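 Greenhouse paddy, 30/27 °C day/night, 16-h light; sterilized Tama silt loam, 2.6% OM. Plants at 2.0–2.5 leaves; flood 3 cm, compound added directly to water. Visual score at 21 d, 0 = no effect, 100 = complete control, relative to untreated.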
# Rice, Water Seeded = assay: Test F flood (paddy) test; format: in vivo, Oryza sativa; details: 62 g ai/ha, 21 d, scale 0-100
# From the text: as §1, with “Potted plants were grown in a greenhouse with day/night temperature settings of 30/27° C., and supplemental balanced lighting was provided to maintain a 16-h photoperiod. Test pots were maintained in the greenhouse until test completion. At time of treatment, test pots were flooded to 3 cm above the soil surface, treated by application of test compounds directly to the paddy water, and then maintained at that water depth for the duration of the test.” left out, “Plant response ratings, summarized in Table F, are based on a scale of 0 to 100 where 0 is no effect and 100 is complete control. A dash (-) response means no test result.” left out
structure (smiles),measurement,setting,value
"O=C1NC[C@H](c2cccc(C(F)(F)F)c2)[C@H]1C(=O)Nc1ccccc1F [Compound 204, (3R,4S)—N-(2-fluorophenyl)-2-oxo-4-[3-(trifluoromethyl)phenyl]-3-pyrrolidinecarboxamide]",ORYSA Obsd.,[1]; 125 g a.i./ha,0
same,ORYSA Obsd. plant response rating (scale 0 to 100),[1]; 125 g a.i./ha,0
same,ORYSA Obsd.,[1]; 500 g a.i./ha,0
same,ORYSA Obsd. plant response rating (scale 0 to 100),[1]; 500 g a.i./ha,0
"O=C1NCCC1C(=O)N(c1ccc(F)c(F)c1)c1ccccc1F (stereo not drawn) [Compound 5, N-(3,4-difluorophenyl)-N-(2-fluorophenyl)-2-oxo-3-pyrrolidinecarboxamide]","Plant response rating, Waterplantain",waterplantain; 125 g ai/ha,55
same,"Plant response rating, Waterplantain",waterplantain; 250 g ai/ha,70
same,"Plant response rating, Waterplantain",waterplantain; 500 g ai/ha,80
same,"Plant response rating, Waterplantain",waterplantain; 1000 g ai/ha,85
same,"Plant response rating, Waterplantain",waterplantain; 2000 g ai/ha,90
"O=C1NCC(c2ccc(F)c(F)c2)C1C(=O)Nc1cccc(F)c1F (stereo not drawn) [Compound 17, N-(2,3-difluorophenyl)-4-(3,4-difluorophenyl)-2-oxo-3-pyrrolidinecarboxamide]","Plant response rating, Rice, W.S. Jap","Rice, W.S. Jap; 125 g ai/ha",0
same,"Plant response rating, Rice, W.S. Jap","Rice, W.S. Jap; 250 g ai/ha",15
same,"Plant response rating, Rice, W.S. Jap","Rice, W.S. Jap; 500 g ai/ha",15
same,"Plant response rating, Rice, W.S. Jap","Rice, W.S. Jap; 1000 g ai/ha",60
same,"Plant response rating, Rice, W.S. Jap","Rice, W.S. Jap; 2000 g ai/ha",85
CN1CC(c2ccc(F)c(F)c2)C(C(=O)Nc2cccc(F)c2F)C1=O (stereo not drawn) [Compound 303],"Plant response rating, Rice, Water Seeded","Rice, Water Seeded",0
